These results are taken from patent publication US20160170302A1, “NOVEL COMPOUND” (TOKYO OHKA KOGYO CO., LTD., priority 2011, published 2016).

Each structure is given as a SMILES string.

The data set in a line: Solubility to organic solvents PM and AN. Particulars: for Solubility to Solvent AN: solvent: cyclohexanone (AN); for Solubility to Solvent PM: solvent: propylene glycol monomethyl ether acetate (PM).

With `COc1ccc(/C=C/C(=O)N2CCCCC2)cc1[N+](=O)[O-]` [Compound 14], the “Solubility to Solvent AN” value was >50 mass % and the “Solubility to Solvent PM” value is listed as >50 mass %.
Take `CCN(CC)C(=O)/C(C)=C/c1ccc(OC)cc1[N+](=O)[O-]` [Compound 11]: the “Solubility to Solvent AN” value is listed as >50 mass % and the “Solubility to Solvent PM” value is >50 mass %.
For `CCN(CC)C(=O)/C=C/c1ccc(OC)cc1` [Compound 1], the “Solubility to Solvent AN” value is recorded as >50 mass % and the “Solubility to Solvent PM” value is given as >50 mass %.
Take `COc1ccc(/C=C/C(=O)n2ccnc2)cc1[N+](=O)[O-]` [Compound 6]: the “Solubility to Solvent AN” value is listed as >50 mass % and the “Solubility to Solvent PM” value was >50 mass %.
Turning to `CCN(CC)C(=O)/C=C/c1ccc(OC)c([N+](=O)[O-])c1` [Compound 10], the “Solubility to Solvent AN” value is listed as >50 mass % and the “Solubility to Solvent PM” value was >50 mass %.
Consider `COc1ccc(/C=C(\C)C(=O)N2CCCCC2)c([N+](=O)[O-])c1` [Compound 15], for which the “Solubility to Solvent AN” value is recorded as >50 mass % and the “Solubility to Solvent PM” value is listed as >50 mass %.
Consider `COc1ccc(/C=C(\C)C(=O)N2CCCCC2)cc1[N+](=O)[O-]` [Compound 16], for which the “Solubility to Solvent AN” value was >50 mass % and the “Solubility to Solvent PM” value is listed as >50 mass %.
On to `CCO[Si](C)(CCCN)OCC` [Comparative Compound 6, reference compound], for which the “Solubility to Solvent AN” value was >50 mass % and the “Solubility to Solvent PM” value is on record as >50 mass %.
As to `COc1ccc(/C=C/C(=O)N2CCCCC2)cc1` [Compound 17], the “Solubility to Solvent AN” value is given as >50 mass % and the “Solubility to Solvent PM” value was >50 mass %.
In the case of `COc1ccc(/C=C(\C)C(=O)Nc2ccccc2)cc1` [Compound 20], the “Solubility to Solvent AN” value was >50 mass % and the “Solubility to Solvent PM” value was >50 mass %.
On to `COc1ccc(/C=C/C(=O)Nc2ccccc2)cc1` [Compound 2], for which the “Solubility to Solvent AN” value is on record as >50 mass % and the “Solubility to Solvent PM” value was >50 mass %.
On to `COc1ccc(/C=C/C(=O)N2CCCCC2)c([N+](=O)[O-])c1` [Compound 13], for which the “Solubility to Solvent AN” value is on record as >50 mass % and the “Solubility to Solvent PM” value is recorded as >50 mass %.
Consider `CCN(CC)C(=O)/C(C)=C/c1ccc(OC)cc1` [Compound 19], for which the “Solubility to Solvent AN” value is given as >50 mass % and the “Solubility to Solvent PM” value is listed as >50 mass %.
For `CCN(CC)C(=O)/C=C/c1ccc(OC)cc1[N+](=O)[O-]` [Compound 9], the “Solubility to Solvent AN” value is listed as >50 mass % and the “Solubility to Solvent PM” value is >50 mass %.
Take `COc1ccc(/C=C/C(=O)n2ccnc2)cc1` [Compound 3]: the “Solubility to Solvent AN” value is given as >50 mass % and the “Solubility to Solvent PM” value is given as >50 mass %.
In the case of `COc1ccc(/C=C(\C)C(=O)n2ccnc2)cc1` [Compound 18], the “Solubility to Solvent AN” value is listed as >50 mass % and the “Solubility to Solvent PM” value is >50 mass %.
As for `CCN(CC)C(=O)/C(C)=C/c1ccc(OC)c([N+](=O)[O-])c1` [Compound 12], the “Solubility to Solvent AN” value is >50 mass % and the “Solubility to Solvent PM” value is on record as >50 mass %.
